In patent publication EP4567040A1, “CRYSTAL FORM OF FUSED TRICYCLIC DERIVATIVE AND PREPARATION METHOD” (Jiangsu Hengrui Pharmaceuticals Co., Ltd., priority 2022, dated 2024):
In brackets after ≈: the same amount, converted by molar mass.

What was measured:
[1] = Thermodynamic solubility testing in pH 7.4 phosphate buffer; type: physicochemical; conditions: sodium phosphate buffer, aqueous buffer, thermodynamic from solid, 25 °C
Experimental: The thermodynamic solubility of the compounds in a pH 7.4 phosphate buffer was determined. Both the sample supernatant and the standard of a known concentration were tested by LC/MS/MS.
15.6 g of NaH2PO4·2H2O was weighed out, placed into a 1 L glass flask, and dissolved in 1 L of deionized water. The pH of the solution was approximately 4.7, and then the pH was adjusted to 7.4 with 10 M NaOH.
1 mg of each compound powder was accurately weighed out and placed in a glass tube. The pH 7.4 sodium phosphate buffer was added to the glass tube, with 1 mL of the buffer added for each milligram of the compound powder. A stirring bar was added to each glass tube, and the glass tube was closed with a cap. […] The observations in each glass tube were recorded. […] The recorded observations and dilution factors
1 mg of each compound powder was accurately weighed out and added to a glass tube, and DMSO was added to each glass tube, with 1 mL of DMSO added for each milligram of the compound powder. […] Samples were analyzed by LC/MS/MS. […]
All calculations were performed using Microsoft Excel. Samples were analyzed by LC/MS/MS and quantified based on the standard of a known concentration. The solubility of the test compounds was calculated using the following formula: [Sample] = Area Ratio sample × DF sample × [STD] / Area Ratio STD DF: dilution factor. […]

CYP2D6 = CYP2D6 (Homo sapiens, UniProt P10635); test: biochemical
Sequence of CYP2D6 (P10635 whole entry): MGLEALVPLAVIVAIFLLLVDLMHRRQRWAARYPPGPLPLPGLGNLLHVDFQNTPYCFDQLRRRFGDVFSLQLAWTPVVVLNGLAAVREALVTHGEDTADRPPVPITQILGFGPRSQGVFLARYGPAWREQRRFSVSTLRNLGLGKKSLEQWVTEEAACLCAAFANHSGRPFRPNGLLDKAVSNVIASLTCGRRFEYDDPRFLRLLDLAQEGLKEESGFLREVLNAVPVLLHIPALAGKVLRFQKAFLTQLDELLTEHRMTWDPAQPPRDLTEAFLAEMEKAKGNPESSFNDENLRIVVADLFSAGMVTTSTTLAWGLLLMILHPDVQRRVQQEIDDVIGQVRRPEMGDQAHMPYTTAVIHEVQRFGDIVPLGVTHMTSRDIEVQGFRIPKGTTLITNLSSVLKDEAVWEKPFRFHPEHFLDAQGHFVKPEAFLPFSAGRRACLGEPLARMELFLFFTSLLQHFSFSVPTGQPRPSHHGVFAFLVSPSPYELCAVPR
Experimental: The effects of different concentrations of the test compounds on the metabolic reactions of phenacetin (CYP1A2), diclofenac sodium (CYP2C9), S-mephenytoin (CYP2C19), bufuralol hydrochloride (CYP2D6), and midazolam (CYP3A4/5) were assessed by liquid chromatography-tandem mass spectrometry (LC/MS/MS).
Then, 200 µL of an acetonitrile solution containing 3% formic acid and 40 nM internal standard verapamil was added, and the mixture was centrifuged at 4000 rpm for 50 min. The mixture was cooled on ice for 20 min and centrifuged at 4000 rpm for 20 min to precipitate protein. 200 µL of the supernatant was taken for LC/MS/MS analysis.
The peak area was calculated based on the chromatogram. The residual activity proportion (%) was calculated using the following formula: peak area ratio = peak area of metabolite / peak area of internal standard [formula]
The half maximal inhibitory concentrations (IC50) against CYP were calculated using Excel XLfit 5.3.1.3.

[2] = system: DPX2 (HepG2 cells were stably transfected with the human PXR gene and the fluorescent reporter gene) cells; test: Cell viability in the PXR induction assay (CellTiter-Fluor); type: cell-based
Experimental: • 1. The potential of the test compounds to induce the activity of drug metabolism enzymes through in vitro activation of PXR was evaluated. […] […] Experimental procedures • 3.1. Preparation for plating • 1) 50 mL of FBS was added to 450 mL of cell culture medium. • 2) DPX2 cells were cultured in a T-75 culture flask in a 37 °C, 5% CO2 incubator with 95% relative humidity. When covering 80-90% of the bottom of the culture flask, the cells were digested. • 3) The top layer of cells cultured in the T-75 culture flask was washed with 8 mL of PBS, and the PBS was pipetted off. The cells were digested with 3 mL of pancreatin at 37 °C for about 5 min or until they were floating in the pancreatin. 10 mL (excessive) of a serum-containing culture medium was added to neutralize the pancreatin. • 4) The cell suspension was transferred to a conical-bottomed centrifuge tube and centrifuged at 120 g for 10 min. The cells were suspended in the plating culture medium, and the concentration was adjusted to 4 × 10^5 cells/mL. The diluted cells were added to a 96-well cell culture plate at 100 µL/well. The culture plate was placed in an incubator and incubated at 37 °C for 24 h before the PXR activation experiment. • 3.2. […] […] The final concentration of DMSO was 0.1%. 1 µL of DMSO was added to a well containing 1 mL of pre-incubated culture medium as a solvent control. • 2) The cell culture plate was taken out of the incubator, and the culture medium was discarded. The test compounds and the positive compound were added to appropriate wells at 100 µL/well, and each group was tested in duplicate. The cell plate was placed in an incubator and incubated for 24 h. • 3.3. Quantification of PXR activation • 1) After […] of compound treatment, PXR activation was quantified for the culture. • 2) The CellTiter-Fluor™ cell viability assay kit and the One-Glo Luciferase reagent were equilibrated to room temperature. The GF-AFC (10 µL) substrate was added to Assay Buffer (10 mL) to form a 2× reagent, and the reagent was then diluted to 1× with 10 mL of PBS; the ONE-Glo substrate was added to the ONE-Glo Luciferase Assay buffer. • 3) The cell culture plate was taken out of the incubator, and the culture medium in each well was discarded. The plate was washed twice with PBS. The 1× CellTiter-Fluor™ reagent was added to a sterilized reagent reservoir, and 50 µL was transferred to each well using a multi-channel pipette. The plate was incubated at 37 °C for 30 min. • 4) The 96-well cell plate was taken out of the incubator, and the fluorescence in each well was measured using a microplate reader put in the fluorescence mode at an excitation wavelength of 400 nm and an emission wavelength of 505 nm. • 5) The ONE-Glo reagent was poured into a reagent reservoir, and then 50 µL was transferred to each well using a multi-channel pipette. The reagent was gently and well mixed, and the mixture was incubated and well mixed at room temperature for 5 min. After the incubation, the luminescence in each well was measured using a luminometer.
The calculation formula for cell viability: Percent cell viability (%) = I(sample)/(I(vehicle) × 100 [formula]
I(sample) represents the fluorescence intensity of the sample, and I(vehicle) represents the fluorescence intensity of 0.1% DMSO to cells.

[3] = compound concentration 0.123 µM

SMILES	solubility at 24 h [1] [µM]	IC50 (CYP2D6) [µM]	Cell viability (%) [2, 3] [%]	Cell viability (%) ([2]; compound concentration 10.0 µM)
C[C@H]1COc2c(-c3nc(N[C@@H]4CCOC[C@H]4O)ncc3Cl)cc(F)c3nc(C(C)(C)O)n1c23 (single isomer, unassigned) [Isomer 1 with a retention time of 2.078 min]	2200 (≈ 1050 µg/mL)	> 30	99.16	117.18
C[C@@H]1COc2c(-c3nc(N[C@@H]4CCOC[C@H]4O)ncc3Cl)cc(F)c3nc(C(C)(C)O)n1c23 (single isomer, unassigned) [Isomer 2 with a retention time of 1.887 min]	2130 (≈ 1020 µg/mL)	> 30	102.41	108.37
